Measurements reported in the supplement of paper PMC10307832.

Experiments:
Assay in all cases: relative viability (nuclei count vs DMSO), 5 days (fraction); higher = more cells survive
Etoposide + Navitoclax = compound: COc1cc([C@@H]2c3cc4c(cc3[C@@H](O[C@@H]3O[C@@H]5CO[C@@H](C)O[C@H]5[C@H](O)[C@H]3O)[C@H]3COC(=O)[C@H]23)OCO4)cc(OC)c1O [Etoposide] + CC1(C)CCC(c2ccc(Cl)cc2)=C(CN2CCN(c3ccc(C(=O)NS(=O)(=O)c4ccc(N[C@H](CCN5CCOCC5)CSc5ccccc5)c(S(=O)(=O)C(F)(F)F)c4)cc3)CC2)C1 [Navitoclax] (partner 0.5 µM)
In short: (§1)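 Relative viability divides the nuclei count in treated wells by that in vehicle wells. Lung cancer cell lines were seeded in 1536-well plates, dosed by pin tool the next day, and fixed and stained after 5 days in one step with final 0.05% Triton X-100, 1% formaldehyde and 1 ug/ml Hoechst. Dosing was a single drug or a fixed anchor-drug dose plus five library-drug doses (not always all listed) in √10 steps, and values are medians of duplicate plates imaged at 4×.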

Etoposide + Linsitinib = compound: COc1cc([C@@H]2c3cc4c(cc3[C@@H](O[C@@H]3O[C@@H]5CO[C@@H](C)O[C@H]5[C@H](O)[C@H]3O)[C@H]3COC(=O)[C@H]23)OCO4)cc(OC)c1O [Etoposide] + C[C@]1(O)C[C@@H](c2nc(-c3ccc4ccc(-c5ccccc5)nc4c3)c3c(N)nccn32)C1 [Linsitinib] (partner 1 µM)
In short: as §1

Bleomycin + OSI-027 = compound: CC1=C(N=C(N=C1N)[C@H](CC(=O)N)NC[C@@H](C(=O)N)N)C(=O)N[C@@H]([C@H](C2=CN=CN2)OC3C(C(C(C(O3)CO)O)O)OC4C(C(C(C(O4)CO)O)OC(=O)N)O)C(=O)N[C@H](C)[C@H]([C@H](C)C(=O)N[C@@H]([C@@H](C)O)C(=O)NCCC5=NC(=CS5)C6=NC(=CS6)C(=O)NCCC[S+](C)C)O [Bleomycin] + COc1cccc2cc(-c3nc([C@H]4CC[C@H](C(=O)O)CC4)n4ncnc(N)c34)[nH]c12 [OSI-027] (partner 0.5 µM); details: main component drawn
In short: as §1

Bleomycin + Vorinostat = compound: CC1=C(N=C(N=C1N)[C@H](CC(=O)N)NC[C@@H](C(=O)N)N)C(=O)N[C@@H]([C@H](C2=CN=CN2)OC3C(C(C(C(O3)CO)O)O)OC4C(C(C(C(O4)CO)O)OC(=O)N)O)C(=O)N[C@H](C)[C@H]([C@H](C)C(=O)N[C@@H]([C@@H](C)O)C(=O)NCCC5=NC(=CS5)C6=NC(=CS6)C(=O)NCCC[S+](C)C)O [Bleomycin] + O=C(CCCCCCC(=O)Nc1ccccc1)NO [Vorinostat] (partner 1 µM); details: main component drawn
In short: as §1

| Cell Line | relative viability (Etoposide + Navitoclax; first compound 0.01 µM) | relative viability (Etoposide + Navitoclax; first compound 0.03162 µM) | relative viability (Etoposide + Navitoclax; first compound 0.1 µM) | relative viability (Etoposide + Navitoclax; first compound 0.3162 µM) | relative viability (Etoposide + Navitoclax; first compound 1 µM) | relative viability (Etoposide + Linsitinib; first compound 0.01 µM) | relative viability (Etoposide + Linsitinib; first compound 0.03162 µM) | relative viability (Etoposide + Linsitinib; first compound 0.1 µM) | relative viability (Etoposide + Linsitinib; first compound 0.3162 µM) | relative viability (Etoposide + Linsitinib; first compound 1 µM) | relative viability (Bleomycin + OSI-027; first compound 0.01 µM) | relative viability (Bleomycin + OSI-027; first compound 0.03162 µM) | relative viability (Bleomycin + OSI-027; first compound 0.1 µM) | relative viability (Bleomycin + OSI-027; first compound 0.3162 µM) | relative viability (Bleomycin + OSI-027; first compound 1 µM) | relative viability (Bleomycin + Vorinostat; first compound 0.01 µM) | relative viability (Bleomycin + Vorinostat; first compound 0.03162 µM) | relative viability (Bleomycin + Vorinostat; first compound 0.1 µM) | relative viability (Bleomycin + Vorinostat; first compound 0.3162 µM) | relative viability (Bleomycin + Vorinostat; first compound 1 µM) |
| --- | --- | --- | --- | --- | --- | --- | --- | --- | --- | --- | --- | --- | --- | --- | --- | --- | --- | --- | --- | --- |
| HCC-15 | 0.652 | 0.647 | 0.626 | 0.31 | 0.125 | 0.892 | 0.903 | 0.755 | 0.396 | 0.16 | 0.645 | 0.612 | 0.533 | 0.182 | 0.152 | 0.77 | 0.864 | 0.702 | 0.327 | 0.249 |
| HCC-44 | 0.845 | 1.05 | 1.1 | 0.882 | 0.496 | 0.61 | 0.745 | 0.729 | 0.535 | 0.267 | 0.279 | 0.38 | 0.248 | 0.205 | 0.175 | 0.906 | 0.989 | 0.733 | 0.459 | 0.383 |
| HCC-78 | 0.728 | 0.798 | 0.341 | 0.313 | 0.158 | 0.436 | 0.525 | 0.255 | 0.322 | 0.181 | 0.38 | 0.348 | 0.309 | 0.311 | 0.29 | 0.388 | 0.362 | 0.487 | 0.399 | 0.391 |
| HCC-366 | 0.923 | 1.05 | 0.864 | 0.306 | 0.0332 | 0.474 | 0.678 | 0.337 | 0.166 | 0.0566 | 0.675 | 0.643 | 0.471 | 0.122 | 0.119 | 0.115 | 0.135 | 0.0903 | 0.0328 | 0.0275 |
| HCC-827 | 1.03 | 0.985 | 0.956 | 0.613 | 0.331 | 0.983 | 0.919 | 0.931 | 0.659 | 0.33 | 0.71 | 0.81 | 0.6 | 0.562 | 0.193 | 0.857 | – | 0.736 | 0.585 | 0.207 |
| IA-LM | 0.595 | 0.742 | 0.731 | 0.616 | 0.431 | 0.584 | 0.596 | 0.348 | 0.506 | 0.527 | – | – | – | – | – | 0.791 | 0.802 | 0.801 | 0.398 | 0.635 |
| LCLC-103H | – | – | – | – | – | 0.998 | 1.12 | 0.93 | 1.02 | 0.902 | 0.39 | 0.451 | 0.468 | 0.34 | 0.219 | 0.678 | 0.625 | 0.704 | 0.654 | 0.417 |
| NCI-H358 | – | – | – | – | – | 0.622 | 0.792 | 0.561 | 0.202 | 0.181 | 0.73 | 0.67 | 0.662 | 0.335 | 0.185 | 0.539 | 0.722 | 0.661 | 0.327 | 0.217 |
| NCI-H522 | – | – | – | – | – | – | – | – | – | – | 0.662 | 0.619 | 0.593 | 0.419 | 0.432 | 0.979 | 0.911 | 0.739 | 0.525 | 0.374 |
| NCI-H650 | – | – | – | – | – | 0.856 | 0.809 | 0.452 | 0.445 | 0.187 | 0.433 | 0.546 | 0.481 | 0.429 | 0.234 | 0.295 | 0.441 | 0.376 | 0.328 | 0.212 |
| NCI-H661 | – | – | – | – | – | 0.591 | 0.547 | 0.388 | 0.398 | 0.235 | 0.632 | 0.683 | 0.4 | 0.23 | 0.235 | 0.777 | 0.708 | 0.565 | 0.376 | 0.346 |
| NCI-H1299 | 1.06 | 1.02 | 1.05 | 0.946 | 0.785 | 0.973 | 1.03 | 1 | 0.879 | 0.7 | – | – | – | – | – | – | – | – | – | – |
| NCI-H1563 | – | – | – | – | – | 1.17 | 1.05 | 0.957 | 0.673 | 0.612 | 0.67 | 0.806 | 0.657 | 0.577 | 0.581 | – | – | – | – | – |
| NCI-H1623 | – | – | – | – | – | – | – | – | – | – | 0.406 | 0.432 | 0.464 | 0.363 | 0.322 | – | – | – | – | – |
| NCI-H1648 | – | – | – | – | – | – | – | – | – | – | 0.274 | – | 0.257 | 0.246 | 0.274 | 0.46 | 0.324 | 0.275 | 0.257 | 0.271 |
| NCI-H1650 | 1.25 | 1.19 | 0.885 | 0.353 | 0.309 | – | – | – | – | – | 0.468 | 0.332 | 0.227 | 0.171 | 0.151 | 0.36 | 0.241 | 0.22 | 0.146 | 0.169 |
| NCI-H1703 | 1.04 | 1.12 | 0.575 | 0.527 | 0.307 | 0.672 | 1.04 | 0.642 | 0.641 | 0.329 | – | – | – | – | – | – | – | – | – | – |
| NCI-H1792 | 0.716 | 0.59 | 0.507 | 0.567 | 0.394 | 0.405 | 0.331 | 0.261 | 0.418 | 0.289 | 0.728 | 0.863 | 0.649 | 0.459 | 0.338 | – | – | – | – | – |
| NCI-H2170 | 0.625 | 0.728 | – | 0.525 | 0.399 | – | – | – | – | – | 0.598 | 0.764 | 0.767 | 0.52 | 0.395 | 0.639 | 0.591 | 0.605 | 0.383 | 0.34 |
| NCI-H2342 | – | – | – | – | – | – | – | – | – | – | 0.676 | 0.634 | 0.598 | 0.507 | 0.511 | 0.786 | 0.735 | 0.652 | 0.551 | 0.491 |
| SW 900 | – | – | – | – | – | – | – | – | – | – | 0.428 | 0.336 | 0.425 | 0.15 | 0.134 | 0.403 | 0.513 | 0.427 | 0.207 | 0.217 |
